Test [1] deals with poly(I·C) (RNA, polymer, inosine (hypoxanthine base) at every position of strand 1 (written as G)) G/C. As to the kind of experiment: UV melting at 260 nm. Conditions: Na+ (25 mM NaCl, 10 mM sodium cacodylate); 10 mM cacodylate pH 7.0; 10 and 15 μM Nile blue; free Tm about 48.0 °C.
Test [2] relates to poly(A·U) (RNA, polymer) A/U. The experiment in a line: absorption titration, Benesi-Hildebrand. To be noted: Na+ (25 mM NaCl, 10 mM sodium cacodylate); 10 mM cacodylate pH 7.0, 0.1 mM Na2EDTA; RNA concentration by ε260 14280; per base.
For test [3], the system named is poly(A·U) (RNA, polymer) A/U. The experiment in a line: UV melting at 260 nm. To be noted: Na+ (25 mM NaCl, 10 mM sodium cacodylate); 10 mM cacodylate pH 7.0; 10 and 15 μM Nile blue; free Tm about 46.0 °C.
The subject of test [4] is poly(I·C) (RNA, polymer, inosine (hypoxanthine base) at every position of strand 1 (written as G)) G/C. As to the kind of experiment: absorption titration, Benesi-Hildebrand. Conditions: Na+ (25 mM NaCl, 10 mM sodium cacodylate); 10 mM cacodylate pH 7.0, 0.1 mM Na2EDTA; RNA concentration by ε260 10000; per base.
For test [5] the test system is unchanged. As to the kind of experiment: fluorescence titration, Benesi-Hildebrand. To be noted: Na+ (25 mM NaCl, 10 mM sodium cacodylate); 10 mM cacodylate pH 7.0, 0.1 mM Na2EDTA; RNA concentration by ε260 10000; per base.
The test system of test [6] is poly(A·U) (RNA, polymer) A/U. As to the kind of experiment: fluorescence titration, Benesi-Hildebrand. Conditions: Na+ (25 mM NaCl, 10 mM sodium cacodylate); 10 mM cacodylate pH 7.0, 0.1 mM Na2EDTA; RNA concentration by ε260 14280; per base.

Take `CC[N+](CC)=c1ccc2nc3c(cc(N)c4ccccc43)oc-2c1`: the binding entry in test [1] and in test [3] was “yes” each time. The KBH in test [2] came out at 586000 M⁻¹; in test [4], 116000 M⁻¹; in test [5], 113000 M⁻¹; in test [6], 211000 M⁻¹.

The record behind these values is publication PMC11714696 (2024).
